US8591878B2, “Therapeutic compounds” (Merck Sharp & Dohme Corp., priority 2008, dated 2013)

The molecules below were run on subgenomic HCV replicon in Huh-7 cells (assay: Cell-Based HCV Replication Assay (replicon, NS3 Cell-ELISA)). Conditions: Hepatitis C virus, Huh-7, 96 h, read-out: Cell based HCV Replication Assay-IC50.
Design: species or system hepatitis C virus (HCV)
Source text: Another suitable assay is the cellular Replicon or rheplisa assay described as follows:
Cell-Based HCV Replication Assay
Cell clones that stably maintain subgenomic HCV replicon were obtained by transfecting Huh-7 cells with an RNA replicon identical to I377neo/NS3-3′/wt described by V. Lohmann et al., 285 SCIENCE 110 (Jul. 2, 1999) (EMBL-GENBANK No. AJ242652), followed by selection with neomycin sulfate (G418). Viral replication was monitored by measuring the expression of the NS3 protein by an ELISA assay performed directly on cells grown in 96-well microtiter plates (Cell-ELISA) using the anti-NS3 monoclonal antibody 10E5/24 (as described in International Patent Application Publication WO 02/59321). Cells were seeded into 96 well plates at a density of 10^4 cells per well in a final volume of 0.1 ml of DMEM/10% FCS. Two hours after plating, 50 μl of DMEM/10% FCS containing a 3× concentration of inhibitor were added, cells were incubated for 96 hours and then fixed for 10 minutes with ice-cold isopropanol. Each condition was tested in duplicate and average absorbance values were used for calculations. The cells were washed twice with PBS, blocked with 5% non-fat dry milk in PBS+0.1% TRITON X-100+0.02% SDS (PBSTS) and then incubated o/n at 4° C. with the 10E5/24 mab diluted in Milk/PBSTS. After washing 5 times with PBSTS, the cells were incubated for 3 hours at room temperature with Fe-specific anti-mouse IgG conjugated to alkaline phosphatase (Sigma), diluted in Milk/PBSTS. After washing again as above, the reaction was developed with p-nitrophenyl phosphate disodium substrate (Sigma) and the absorbance at 405/620 nm read at intervals. For calculations, we used data sets where samples incubated without inhibitors had absorbance values comprised between 1 and 1.5. The inhibitor concentration that reduced by 50% the expression of NS3 (IC50) was calculated by fitting the data to the Hill equation, Fraction inhibition=1−(Ai−b)/(A0−b)=[I]^n/([I]+IC50) where: • Ai=absorbance value of HBI10 cells supplemented with the indicated inhibitor concentration. • A0=absorbance value of HBI10 cells incubated without inhibitor. • b=absorbance value of Huh-7 cells plated at the same density in the same microtiter plates and incubated without inhibitor. • n=Hill coefficient.
C=C[C@@H]1C[C@]1(NC(=O)[C@@H]1C[C@@H]2CN1C(=O)[C@H](C1CCCCC1)NC(=O)N1CCC[C@H](C1)OCCCc1cc3c(nccc3cc1OC)O2)C(=O)NS(=O)(=O)C1CC1 [Example 11, (3R,5S,8S,15R)-8-cyclohexyl-N-((1R,2S)-1-{[(cyclopropylsulfonyl)amino]carbonyl}-2-vinylcyclopropyl)-21-methoxy-7,10-dioxo-2,16-dioxa-6,9,11,26-tetraazapentacyclo [18.6.2.1^3,6.1^11,15.0^23,27] triaconta-1(26),20,22,24,27-pentaene-5-carboxamide] was tested, and the IC50 was 6 nM.

Same assay, conditions: Hepatitis C virus; Huh-7 cells with subgenomic HCV replicon; NS3 expression by Cell-ELISA; 96 hours incubation; read-out: Cell based HCV Replication Assay-IC50
In the case of C=C[C@@H]1C[C@]1(NC(=O)[C@@H]1C[C@@H]2CN1C(=O)[C@H](C1CCCC1)NC(=O)N1CCC[C@@H]1COCCCc1ccc3nc(OCC)nc(c3c1)O2)C(=O)NS(=O)(=O)C1CC1 [Example 28, (6R,8S,11S,17aR)-11-cyclopentyl-N-((1R,2S)-1-{[(cyclopropylsulfonyl)amino]carbonyl}-2-vinylcyclopropyl)-3-ethoxy-10,13-dioxo-7,8,10,11,12,13,16,17,17a,18, 20,21-dodecahydro-6H,15H-1,22-(ethanediylidene)-6,9-methanopyrimido [4,5-n] pyrrolo[2,1-c][1,13,4,6,9] dioxatriazacyclononadecine-8-carboxamide], the IC50 is reported as 6 nM.
In the case of C=C[C@@H]1C[C@]1(NC(=O)[C@@H]1C[C@@H]2CN1C(=O)[C@H](C1CCCCC1)NC(=O)N1CCC[C@@H](C1)OCCCc1cc3c(nccc3cc1OC)O2)C(=O)NS(=O)(=O)C1CC1 [Example 10, (3R,5S,8S,15S)-8-cyclohexyl-N-((1R,2S)-1-{[(cyclopropylsulfonyl)amino]carbonyl}-2-vinylcyclopropyl)-21-methoxy-7,10-dioxo-2,16-dioxa-6,9,11,26-tetraazapentacyclo [18.6.2.1^3,6.1^11,15.0^23,27] triaconta-1(26),20,22,24,27-pentaene-5-carboxamide], the IC50 is reported as 7 nM.
C=C[C@@H]1C[C@]1(NC(=O)[C@@H]1C[C@@H]2CN1C(=O)[C@H](C1CCCC1)NC(=O)N1CC[C@@H](C1)OCCC/C=C/c1cc3ccccc3cc1O2)C(=O)NS(=O)(=O)C1CC1 [Example 37, (1R,13E,19S,25S,28S)-25-cyclopentyl-N-((1R,2S)-1-{[(cyclopropylsulfonyl)amino]carbonyl}-2-vinylcyclopropyl)-23,26-dioxo-2,18-dioxa-22,24,27-triazapentacyclo [25.2.1.1^19,22.0^3,12.0^5,10] hentriaconta-3(12),4,5,7,9,10,13-heptaene-28-carboxamide] showed an IC50 of 4 nM.
Work on C=CC1C[C@]1(NC(=O)[C@@H]1C[C@@H]2CN1C(=O)[C@H](C1CCCCC1)NC(=O)N1CCC(CC1)OCCCCCc1cc3c(cc(OCC)nc3cc1OC)O2)C(=O)NS(=O)(=O)C1CC1 (stereo in doubt) [Example 34, (3R,5S,8S)-8-cyclohexyl-N-((1R,2R)-1-{[(cyclopropylsulfonyl)amino]carbonyl}-2-vinylcyclopropyl)-26-ethoxy-22-methoxy-7,10-dioxo-2,15-dioxa-6,9,11,25-tetraazapentacyclo [19.6.2.2^11,14.1^3,6.0^24,28] dotriaconta-1(27),21,23,25,28-pentaene-5-carboxamide] yielded an IC50 of 7 nM.
Molecule C=C[C@@H]1C[C@]1(NC(=O)[C@@H]1C[C@@H]2CN1C(=O)[C@H](C1CCCCC1)NC(=O)N1CCC[C@H](CCCCc3cc4c(cc(-c5ccccc5)nc4cc3OC)O2)C1)C(=O)NS(=O)(=O)C1CC1 [Example 6, (3R,5S,8S,15S)-8-cyclohexyl-N-((1R,2S)-1-{[(cyclopropylsulfonyl)amino]carbonyl}-2-vinylcyclopropyl)-21-methoxy-7,10-dioxo-25-phenyl-2-oxa-6,9,11,24-tetraazapentacyclo [18.6.2.1^3,6.1^11,15.0^23,27] triaconta-1(27),20,22,23,25,27-hexaene-5-carboxamide] has an IC50 of 24 nM.
Molecule C=C[C@@H]1C[C@]1(NC(=O)C1C[C@@H]2CN1C(=O)[C@H](C1CCCC1)NC(=O)N1CC[C@@H](C1)OCCC/C=C/c1cc3ccc(OC)cc3nc1O2)C(=O)NS(=O)(=O)C1CC1 (stereo partly drawn) [Example 17, (1R,13E,19S,25S,28S)-25-cyclopentyl-N-((1R,2S)-1-{[(cyclopropylsulfonyl)amino]carbonyl}-2-vinylcyclopropyl)-7-methoxy-23,26-dioxo-2,18-dioxa-4,22,24,27-tetraazapentacyclo [25.2.1.1^19,22.0^3,12.0^5,10] hentriaconta-3(12),4,5,7,9,10,13-heptaene-28-carboxamide] has an IC50 of 4 nM.
Molecule C=C[C@@H]1C[C@]1(NC(=O)[C@@H]1C[C@@H]2CN1C(=O)[C@H](C1CCCC1)CNC(=O)N1CC[C@H](COCCCc3nc4ccc(OC)cc4cc3O2)C1)C(=O)NS(=O)(=O)C1CC1 [Example 33, (1R,18S,24S,27S)-24-cyclopentyl-N-((1R,2R)-1-{[(cyclopropylsulfonyl)amino]carbonyl}-2-vinylcyclopropyl)-7-methoxy-22,25-dioxo-2,16-dioxa-11,21,23,26-tetraazapentacyclo [24.2.1.1^18,21.0^3,12.0^5,10] triaconta-3(12),4,5,7,9,10-hexaene-27-carboxamide] has an IC50 of over 100 nM.
For C=C[C@@H]1C[C@]1(NC(=O)[C@@H]1C[C@@H]2CN1C(=O)[C@H](C(C)(C)C)NC(=O)N1CCC[C@@H]1CC/C=C/c1cccc3c1CN(C3)C(=O)O2)C(=O)NS(=O)(=O)C1CC1 [Example 3, (1R,12E,16S,23S,26S)-23-tert-butyl-N-((1R,2S)-1-{[(cyclopropylsulfonyl)amino]carbonyl}-2-vinylcyclopropyl)-3,21,24-trioxo-2-oxa-4,20,22,25-tetraazapentacyclo [23.2.1.1^4,7.0^6,11.0^16,20] nonacosa-6,8,10,12-tetraene-26-carboxamide], the IC50 was 16 nM.
Work on C=C[C@@H]1C[C@]1(NC(=O)[C@@H]1C[C@@H]2CN1C(=O)[C@H](C1CCCCC1)NC(=O)N1CC(C1)OCCC/C=C/c1cc3c(cc(OCC)nc3cc1OC)O2)C(=O)NS(=O)(=O)C1CC1 [Example 39, (3R,5S,8S,18E)-8-cyclohexyl-N-((1R,2S)-1-{[(cyclopropylsulfonyl)amino]carbonyl}-2-vinylcyclopropyl)-25-ethoxy-21-methoxy-7,10-dioxo-2,14-dioxa-6,9,11,24-tetraazapentacyclo [18.6.2.1^3,6.1^11,13.0^23,27] triaconta-1(26),18,20,22,24,27-hexaene-5-carboxamide] yielded an IC50 of 19 nM.
C=CC1C[C@]1(NC(=O)[C@@H]1C[C@@H]2CN1C(=O)[C@H](C1CCCCC1)NC(=O)N1CCC(CC1)OCCC/C=C/c1cc3c(cc(OCC)nc3cc1OC)O2)C(=O)NS(=O)(=O)C1CC1 (stereo in doubt) [Example 32, (3R,5S,8S,19E)-8-cyclohexyl-N-((1R,2R)-1-{[(cyclopropylsulfonyl)amino]carbonyl}-2-vinylcyclopropyl)-26-ethoxy-22-methoxy-7,10-dioxo-2,15-dioxa-6,9,11,25-tetraazapentacyclo [19.6.2.2^11,14.1^3,6.0^24,28] dotriaconta-1(27),19,21,23,25,28-hexaene-5-carboxamide] was tested, and the IC50 was 10 nM.
C=C[C@@H]1C[C@]1(NC(=O)[C@@H]1C[C@@H]2CN1C(=O)[C@H](C(C)(C)C)NC(=O)N1CCC[C@H]1CC/C=C/c1cccc3c1CN(C3)C(=O)O2)C(=O)NS(=O)(=O)C1CC1 [Example 4, (1R,12E,16R,23S,26S)-23-tert-butyl-N-((1R,2S)-1-{[(cyclopropylsulfonyl)amino]carbonyl}-2-vinylcyclopropyl)-3,21,24-trioxo-2-oxa-4,20,22,25-tetraazapentacyclo [23.2.1.1^4,7.0^6,11.0^16,20] nonacosa-6,8,10,12-tetraene-26-carboxamide] showed an IC50 of 260 nM.

Same assay, conditions: Huh-7 cells with subgenomic HCV replicon; NS3 expression by Cell-ELISA; 96 hours incubation; read-out: Cell based HCV Replication Assay-IC50
“(1R,13E,19S,25S,28S)-25- cyclohexyl-N-((1R,2S)-1- {[(cyclopropylsulfonyl)amino] carbonyl}-2- vinylcyclopropyl)-7-methoxy- 23,26-dioxo-2,18-dioxa- 4,22,24,27-tetraazapentacyclo [25.2.1.1^19,22.0^3,12.0^5,10] hentriaconta- 3(12),4,5,7,9,10,13-heptaene- 28-carboxamide [Example 42]” gave an IC50 of 3 nM.
